Data reported in patent publication US6355799B1, “Substituted benzene compounds, process for their preparation, and herbicidal and defoliant compositions containing them” (ISK Americas Incorporated, priority 1997, dated 2002).

Key:
Format in all cases: in vivo
[1] = tested on: redroot pigweed (Amaranthus retroflexus, AMARE); experiment: Pre-emerge test, greenhouse herbicide activity screening; conditions: pre-emerge, rated 14 days after application, 0 = no damage, 100 = complete death
Outline: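 Rating: 0–100 visual injury, 14 DAA. Application: acetone, 187 l/ha, 15–1000 g ai/ha, flat-fan track sprayer with nozzle 40–45 cm above soil or canopy. Post-emerge runs used 0.25% v/v surfactant on 2–3 leaf plants.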

[2] = tested on: barnyardgrass (Echinochloa crus-galli, ECHCG); experiment: as above; conditions: pre-emerge, rated 14 days after application, 0 = no damage, 100 = complete death
Outline: (§1)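 Fourteen days after spraying, crop and weed injury was graded visually from 0, no effect, to 100, every plant dead. Test substances were dissolved in acetone and applied at 15–1000 g ai/ha with a flat-fan nozzle. Application was either pre-emergence, one day after sowing, or post-emergence at the 2–3 leaf stage.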

[3] = tested on: green foxtail (Setaria viridis, SETVI); experiment: as above; conditions: pre-emerge, rated 14 days after application, 0 = no damage, 100 = complete death
Outline: as §1

[4] = tested on: ivyleaf morningglory (Ipomoea hederacea, IPOHE); experiment: as above; conditions: pre-emerge, rated 14 days after application, 0 = no damage, 100 = complete death
Outline: as §1

[5] = tested on: johnsongrass (Sorghum halepense, SORHA); experiment: as above; conditions: pre-emerge, rated 14 days after application, 0 = no damage, 100 = complete death
Outline: as §1

[6] = tested on: lambsquarters (Chenopodium album, CHEAL); experiment: as above; conditions: pre-emerge, rated 14 days after application, 0 = no damage, 100 = complete death
Outline: as §1

[7] = tested on: large crabgrass (Digitaria sanguinalis, DIGSA); experiment: as above; conditions: pre-emerge, rated 14 days after application, 0 = no damage, 100 = complete death
Outline: as §1

[8] = tested on: sicklepod (Cassia obtusifolia, CASOB); experiment: as above; conditions: pre-emerge, rated 14 days after application, 0 = no damage, 100 = complete death
Outline: as §1

[9] = tested on: velvetleaf (Abutilon theophrasti, ABUTH); experiment: as above; conditions: pre-emerge, rated 14 days after application, 0 = no damage, 100 = complete death
Outline: as §1

[10] = tested on: field corn (Zea mays L., var. Dekalb 535, CORN); experiment: Pre-emerge test, crop safety; conditions: 63 g ai/ha; pre-emerge; rated 14 days after application; 0 = no damage, 100 = complete death
Outline: (§2)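 Compounds in acetone were track-sprayed at 187 l/ha, 15–1000 g ai/ha, onto sandy loam pots. Pre-emerge seeds were sown one day before spraying, with surface watering afterwards. Post-emerge plants were at the 2–3 leaf stage and sprayed with 0.25% v/v non-ionic surfactant. Injury was rated 0–100 at 14 days.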

[11] = tested on: upland rice (Oryza sp., var. Tebonnet, RICE); experiment: Pre-emerge test, crop safety; conditions: pre-emerge, rated 14 days after application, 0 = no damage, 100 = complete death
Outline: as §2

[12] = tested on: barnyardgrass (Echinochloa crus-galli, ECHCG); experiment: Post-emerge test, greenhouse herbicide activity screening; conditions: phytotoxicity rating 0-100 (0 no damage, 100 complete death), 14 days after application
Outline: (§3)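 Sandy loam pots; pre-emerge: sown 1 d pre-spray, surface-watered after, then bottom-watered. Post-emerge: sown 8–21 d before, 2–3 leaf stage, + 0.25% v/v NIS, bottom-watered. Acetone, 187 l/ha track spray, 15–1000 g ai/ha. 0–100 injury score, day 14.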

[13] = tested on: green foxtail (Setaria viridis, SETVI); experiment: as above; conditions: phytotoxicity rating 0-100 (0 no damage, 100 complete death), 14 days after application
Outline: as §3

[14] = tested on: ivyleaf morningglory (Ipomoea hederacea, IPOHE); experiment: as above; conditions: phytotoxicity rating 0-100 (0 no damage, 100 complete death), 14 days after application
Outline: as §3

[15] = tested on: johnsongrass (Sorghum halepense, SORHA); experiment: as above; conditions: phytotoxicity rating 0-100 (0 no damage, 100 complete death), 14 days after application
Outline: as §3

[16] = tested on: lambsquarters (Chenopodium album, CHEAL); experiment: as above; conditions: phytotoxicity rating 0-100 (0 no damage, 100 complete death), 14 days after application
Outline: as §3

[17] = tested on: large crabgrass (Digitaria sanguinalis, DIGSA); experiment: as above; conditions: phytotoxicity rating 0-100 (0 no damage, 100 complete death), 14 days after application
Outline: as §3

[18] = tested on: redroot pigweed (Amaranthus retroflexus, AMARE); experiment: as above; conditions: phytotoxicity rating 0-100 (0 no damage, 100 complete death), 14 days after application
Outline: as §3

[19] = tested on: sicklepod (Cassia obtusifolia, CASOB); experiment: as above; conditions: phytotoxicity rating 0-100 (0 no damage, 100 complete death), 14 days after application
Outline: as §3

[20] = tested on: velvetleaf (Abutilon theophrasti, ABUTH); experiment: as above; conditions: phytotoxicity rating 0-100 (0 no damage, 100 complete death), 14 days after application
Outline: as §3

[21] = tested on: field corn (Zea mays L., var. Dekalb 535, CORN); experiment: Post-emerge test, crop safety; conditions: phytotoxicity rating 0-100 (0 no damage, 100 complete death), 14 days after application
Outline: as §1

[22] = tested on: upland rice (Oryza sp., var. Tebonnet, RICE); experiment: Post-emerge test, crop safety; conditions: phytotoxicity rating 0-100 (0 no damage, 100 complete death), 14 days after application
Outline: as §1

Question: Which results are given for `C=C(C)C(=O)Nc1c(OC)c(Cl)cc(F)c1-n1c(=O)cc(C(F)(F)F)n(C)c1=O` [2-5]?
Answer: Pre-emerge Herbicidal Activity AMARE (phytotoxicity rating, scale 0-100) ([1]; 63 g ai/ha): 90; Pre-emerge Herbicidal Activity AMARE (phytotoxicity rating, scale 0-100) ([1]; 250 g ai/ha): 100; Pre-emerge Herbicidal Activity ECHCG (phytotoxicity rating, scale 0-100) ([2]; 63 g ai/ha): 10; Pre-emerge Herbicidal Activity ECHCG (phytotoxicity rating, scale 0-100) ([2]; 250 g ai/ha): 90; Pre-emerge Herbicidal Activity SETVI (phytotoxicity rating, scale 0-100) ([3]; 63 g ai/ha): 100; Pre-emerge Herbicidal Activity SETVI (phytotoxicity rating, scale 0-100) ([3]; 250 g ai/ha): 100; Pre-emerge Herbicidal Activity IPOHE (phytotoxicity rating, scale 0-100) ([4]; 63 g ai/ha): 90; Pre-emerge Herbicidal Activity IPOHE (phytotoxicity rating, scale 0-100) ([4]; 250 g ai/ha): 100; Pre-emerge Herbicidal Activity SORHA (phytotoxicity rating, scale 0-100) ([5]; 63 g ai/ha): 60; Pre-emerge Herbicidal Activity SORHA (phytotoxicity rating, scale 0-100) ([5]; 250 g ai/ha): 90; Pre-emerge Herbicidal Activity CHEAL (phytotoxicity rating, scale 0-100) ([6]; 63 g ai/ha): 100; Pre-emerge Herbicidal Activity CHEAL (phytotoxicity rating, scale 0-100) ([6]; 250 g ai/ha): 100; Pre-emerge Herbicidal Activity DIGSA (phytotoxicity rating, scale 0-100) ([7]; 63 g ai/ha): 50; Pre-emerge Herbicidal Activity DIGSA (phytotoxicity rating, scale 0-100) ([7]; 250 g ai/ha): 95; Pre-emerge Herbicidal Activity CASOB (phytotoxicity rating, scale 0-100) ([8]; 63 g ai/ha): 40; Pre-emerge Herbicidal Activity CASOB (phytotoxicity rating, scale 0-100) ([8]; 250 g ai/ha): 100; Pre-emerge Herbicidal Activity ABUTH (phytotoxicity rating, scale 0-100) ([9]; 63 g ai/ha): 100; Pre-emerge Herbicidal Activity ABUTH (phytotoxicity rating, scale 0-100) ([9]; 250 g ai/ha): 100; Pre-emerge crop damage CORN (phytotoxicity rating, scale 0-100) [10]: 10; Pre-emerge crop damage RICE (phytotoxicity rating, scale 0-100) ([11]; 63 g ai/ha): 70; Pre-emerge crop damage RICE (phytotoxicity rating, scale 0-100) ([11]; 250 g ai/ha): 80; Post-emerge Herbicidal Activity ECHCG ([12]; 63 g ai/ha): 0; Post-emerge Herbicidal Activity ECHCG ([12]; 250 g ai/ha): 0; Post-emerge Herbicidal Activity SETVI ([13]; 63 g ai/ha): 0; Post-emerge Herbicidal Activity SETVI ([13]; 250 g ai/ha): 0; Post-emerge Herbicidal Activity IPOHE ([14]; 63 g ai/ha): 50; Post-emerge Herbicidal Activity IPOHE ([14]; 250 g ai/ha): 90; Post-emerge Herbicidal Activity SORHA ([15]; 63 g ai/ha): 0; Post-emerge Herbicidal Activity SORHA ([15]; 250 g ai/ha): 30; Post-emerge Herbicidal Activity CHEAL ([16]; 63 g ai/ha): 40; Post-emerge Herbicidal Activity CHEAL ([16]; 250 g ai/ha): 70; Post-emerge Herbicidal Activity DIGSA ([17]; 63 g ai/ha): 0; Post-emerge Herbicidal Activity DIGSA ([17]; 250 g ai/ha): 0; Post-emerge Herbicidal Activity AMARE ([18]; 63 g ai/ha): 20; Post-emerge Herbicidal Activity AMARE ([18]; 250 g ai/ha): 40; Post-emerge Herbicidal Activity CASOB ([19]; 63 g ai/ha): 10; Post-emerge Herbicidal Activity CASOB ([19]; 250 g ai/ha): 50; Post-emerge Herbicidal Activity ABUTH ([20]; 63 g ai/ha): 90; Post-emerge Herbicidal Activity ABUTH ([20]; 250 g ai/ha): 100; Post-emerge Herbicidal Activity CORN (crop damage) ([21]; 63 g ai/ha): 5; Post-emerge Herbicidal Activity CORN (crop damage) ([21]; 250 g ai/ha): 10; Post-emerge Herbicidal Activity RICE (crop damage) ([22]; 63 g ai/ha): 30; Post-emerge Herbicidal Activity RICE (crop damage) ([22]; 250 g ai/ha): 40
